Assay results as given in patent US9139577B2, “Sulfoximine substituted quinazolines for pharmaceutical compositions” (Boehringer Ingelheim International GmbH, priority 2013, dated 2015).

Legend:
[1] = tested on: MNK2 (MNK2a or MNK2b) or MNK1; conditions: cell culture cells transfected with MNK2 (MNK2a or MNK2b) or MNK1; cited from earlier work
MNK2a = MNK2a (Homo sapiens (Human), UniProt Q9HBH9); assay: MNK2a in vitro kinase assay (Assay 2), ADP-Glo; assay type: biochemical; conditions: read-out: MNK2 IC50
MNK1 = MNK1 (Homo sapiens (Human), UniProt Q9BUB5); assay: MNK1 in vitro kinase assay (Assay 3), Z'-LYTE; assay type: biochemical; conditions: for inhibition at 1 µM: compound concentration of 1 μM, read-out: MNK1 % INH
Method in brief: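 Pre-activated GST-MNK1a phosphorylated a FRET peptide for 60 min at room temperature in HEPES pH 7.5 buffer with Mg2+/Mn2+, EGTA and DTT, with 1% DMSO final. Protease development followed for 60 min.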

Sequence of MNK1 (Q9BUB5 other isoform, or with tags, fused parts or gaps): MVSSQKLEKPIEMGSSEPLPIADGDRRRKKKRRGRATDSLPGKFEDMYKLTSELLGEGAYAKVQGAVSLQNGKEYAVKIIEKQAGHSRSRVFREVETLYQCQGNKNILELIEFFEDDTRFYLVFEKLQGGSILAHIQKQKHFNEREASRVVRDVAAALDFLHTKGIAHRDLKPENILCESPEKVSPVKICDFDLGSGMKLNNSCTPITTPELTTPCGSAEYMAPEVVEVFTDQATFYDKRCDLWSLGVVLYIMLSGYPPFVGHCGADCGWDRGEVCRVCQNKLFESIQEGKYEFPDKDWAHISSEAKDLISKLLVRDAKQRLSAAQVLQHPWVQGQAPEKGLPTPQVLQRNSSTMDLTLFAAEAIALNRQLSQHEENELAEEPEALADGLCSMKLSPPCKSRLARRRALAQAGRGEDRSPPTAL
Sequence of MNK2a (Q9HBH9 whole entry): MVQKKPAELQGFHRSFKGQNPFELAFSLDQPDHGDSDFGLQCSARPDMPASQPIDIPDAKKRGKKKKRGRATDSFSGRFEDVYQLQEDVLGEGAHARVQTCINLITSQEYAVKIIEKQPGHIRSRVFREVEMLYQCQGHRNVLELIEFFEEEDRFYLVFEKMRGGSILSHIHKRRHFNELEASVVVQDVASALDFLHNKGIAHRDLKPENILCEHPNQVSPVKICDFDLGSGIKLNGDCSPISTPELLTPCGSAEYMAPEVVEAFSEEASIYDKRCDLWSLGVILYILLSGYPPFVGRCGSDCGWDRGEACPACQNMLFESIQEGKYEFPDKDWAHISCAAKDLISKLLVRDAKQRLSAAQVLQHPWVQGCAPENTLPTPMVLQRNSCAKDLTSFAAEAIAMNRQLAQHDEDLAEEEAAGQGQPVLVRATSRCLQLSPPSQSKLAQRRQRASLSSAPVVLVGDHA

SMILES	reduction of phosphorylated eIF4E [1]	IC50 (MNK2a) [nM]	inhibition at 1 µM (MNK1) [%]	IC50 (MNK1) [nM]
Nc1ncnc2n[nH]c(Nc3ccc(F)cc3)c12 [CGP57380]	strong reduction of phosphorylated eIF4E	–	–	–
Cc1cc(N=S2(=O)CCCC2)cc2ncnc(Nc3ccc(F)cc3O[C@H](C)C(=O)N3CCCCC3)c12 [Example 4.067]	–	3	97	–
C[C@@H](Oc1cc(F)ccc1Nc1ncnc2cc(N=S(C)(C)=O)cc(Cl)c12)C(F)(F)F [Example 1.003]	–	1	95	–
Cc1cc(N=S(C)(C)=O)cc2ncnc(Nc3ccc(F)cc3OC[C@H]3CCC(=O)N3)c12 [Example 3.038]	–	2	86	–
COCC(=O)N1CCS(=O)(=Nc2cc(C)c3c(Nc4ccc(F)cc4O[C@H](C)c4cc(C)no4)ncnc3c2)CC1 [Example 5.007]	–	4	97	–
Cc1cc(N=S(C)(C)=O)cc2ncnc(Nc3ccc(F)cc3OC(C)C(C)(C)C#N)c12 (centres unmarked) [Example 2.010]	–	11	76	–
Cc1cc(N=S(C)(C)=O)cc2ncnc(Nc3ccc(F)cc3O[C@@H](C)CNS(C)(=O)=O)c12 [Example 5.001]	–	1	97	–
Cc1cc(N=S2(=O)CCCC2)cc2ncnc(Nc3ccc(F)cc3O[C@H](C)C(N)=O)c12 [Example 4.047]	–	5	86	–
COCCN(C)C(=O)[C@@H](C)Oc1cc(F)ccc1Nc1ncnc2cc(N=S3(=O)CCCC3)cc(C)c12 [Example 4.041]	–	7	82	–
CCN(CC)C(=O)[C@@H](C)Oc1cc(F)ccc1Nc1ncnc2cc(N=S(C)(C)=O)cc(C)c12 [Example 4.031]	–	8	78	–
C#CCNC(=O)[C@@H](C)Oc1cc(F)ccc1Nc1ncnc2cc(N=S(C)(C)=O)cc(C)c12 [Example 4.018]	–	4	99	–
Cc1cc(N=S2(=O)CCCC2)cc2ncnc(Nc3ccc(F)cc3O[C@H](C)C(=O)N(C)CC(C)C)c12 [Example 4.052]	–	3	94	–
Cc1cc(N=S(C)(C)=O)cc2ncnc(Nc3ccc(F)cc3O[C@H](C)CNS(=O)(=O)C(F)(F)F)c12 [Example 5.011]	–	99	27	–
Cc1cc(N=S(C)(C)=O)cc2ncnc(Nc3ccc(F)cc3OCCC(F)(F)F)c12 [Example 3.031]	–	5	–	75
Cc1cc(N=S2(=O)CCCC2)cc2ncnc(Nc3ccc(F)cc3O[C@H](C)C(=O)NC3CCC3)c12 [Example 4.015]	–	2	102	–
Cc1cc(N=S2(=O)CCCC2)cc2ncnc(Nc3ccc(F)cc3O[C@H](C)C(=O)NCC(C)O)c12 (some centres unmarked) [Example 4.008]	–	2	97	–
CCOC(Oc1cc(F)ccc1Nc1ncnc2cc(N=S(C)(C)=O)cc(C)c12)C(F)(F)F (centres unmarked) [Example 1.023]	–	8	65	–

SMILES	reduction of phosphorylated eIF4E [1]	IC50 (MNK2a) [nM]	inhibition at 1 µM (MNK1) [%]	IC50 (MNK1) [nM]
Cc1cc(N=S(C)(C)=O)cc2ncnc(Nc3ccc(F)cc3OCc3ccon3)c12 [Example 3.039]	–	1	–	77
Cc1cc(N=S2(=O)CCCC2)cc2ncnc(Nc3ccc(F)cc3O[C@H](C)C(=O)NC3CCOCC3)c12 [Example 4.014]	–	3	96	–
CCOC(=O)[C@@H](C)Oc1cc(F)ccc1Nc1ncnc2cc(N=S3(=O)CCCC3)cc(C)c12 [Example 3.012]	–	23	100	–
Cc1cc(N=S(C)(C)=O)cc2ncnc(Nc3ccc(C(N)=O)cc3OC(C)C)c12 [Example 1.014]	–	5	97	–
Cc1cc(N=S(C)(C)=O)cc2ncnc(Nc3ccc(F)cc3OC(C)Cn3ccnc3C)c12 (centres unmarked) [Example 3.015]	–	3	45	–
COCC(C)Oc1cc(F)ccc1Nc1ncnc2cc(N=S(C)(C)=O)cc(C)c12 (centres unmarked) [Example 3.050]	–	32	87	–
Cc1cc(N=S(C)(C)=O)cc2ncnc(Nc3ccc(F)cc3O[C@H](C)C(=O)NCC(F)(F)F)c12 [Example 4.071]	–	1	–	55
COCC(C)NC(=O)[C@@H](C)Oc1cc(F)ccc1Nc1ncnc2cc(N=S3(=O)CCCC3)cc(C)c12 (some centres unmarked) [Example 4.040]	–	2	97	–
CCNC(=O)NC[C@@H](C)Oc1cc(F)ccc1Nc1ncnc2cc(N=S(C)(C)=O)cc(C)c12 [Example 5.006]	–	29	78	–
Cc1cc(N=S(C)(C)=O)cc2ncnc(Nc3ccc(F)cc3OC(C)C#N)c12 (centres unmarked) [Example 7.005]	–	3	93	–
Cc1cc(N=S(C)(C)=O)cc2ncnc(Nc3ccc(F)cc3OCC3(C(F)(F)F)CC3)c12 [Example 3.027]	–	2	98	–
Cc1cc(N=S(C)(C)=O)cc2ncnc(Nc3ccc(F)cc3OCC3CCNC(=O)C3)c12 (centres unmarked) [Example 3.033]	–	2	56	–
Cc1cc(N=S(C)(C)=O)cc2ncnc(Nc3ccc(F)cc3OC(C)c3nccs3)c12 (centres unmarked) [Example 3.035]	–	37	89	–
Cc1cc(N=S2(=O)CCCC2)cc2ncnc(Nc3ccc(F)cc3O[C@H](C)C(=O)NCC3CCCO3)c12 (some centres unmarked) [Example 4.001]	–	5	97	–
Cc1cc(N=S2(=O)CCCC2)cc2ncnc(Nc3ccc(F)cc3O[C@H](C)C(=O)N3CCC(=O)CC3)c12 [Example 4.054]	–	9	95	–
Cc1cc(N=S(C)(C)=O)cc2ncnc(Nc3ccc(F)cc3OCC(=O)N(C)C)c12 [Example 3.026]	–	4	53	–
